{"source": "patent US20260167629A1", "about": "“NOVEL INDAZOLE DERIVATIVE OR PHARMACEUTICALLY ACCEPTABLE SALT THEREOF, AND USE THEREOF” (KOREA UNIVERSITY RESEARCH AND BUSINESS FOUNDATION, priority 2022, published 2026)", "key": {"[1]": {"test": "Toxicity in JIMT-1 xenograft mice (body weight, H&E of liver, kidney, lung, AST, ALT, BUN)", "type": "in vivo, Balb/c nude mice", "details": "intraperitoneally, 30 mg/kg compound 18c or 20 mg/kg compound 11k", "description": "6-week-old mice (Balb/c nude mice) were purchased and raised in an environment where they could freely access food and water. The mice were acclimated for more than 7 days, and then were transplanted with tumor cells. Tumor cells were injected subcutaneously into the mammary gland tissue of JIMT-1 breast cancer cells at a density of 3×10^6 cells/mL per individual, and when the tumor reached a size of 50 to 100 mm^3, the indazole derivative of the present disclosure was administered intraperitoneally, and the tumor growth was measured. The experimental groups were treated with either 30 mg/kg of compound 18c (formula 1-16) or 20 mg/kg of compound 11k (formula 1-7), and tumor volume, tumor weight, body weight, and the like were measured every 3 to 4 days from the time of administration until the end of the study.\nTo determine whether the treatment with the indazole derivatives of the present disclosure would affect normal organs, a toxicity analysis was performed.\nThe mouse model was sacrificed. The liver, kidney, and lung tissues were fixed in 4% paraformaldehyde for 24 hours, washed in PBS buffer, and then embedded in paraffin. Tissue samples were sectioned and stained with H&E (hematoxylin & eosin). […]"}, "[2]": {"test_system": "Hsp90 clients in JIMT-1 cell line", "test": "Western blotting of Hsp90 clients, JIMT-1", "type": "cell-based", "details": "JIMT-1, 10 μM, 72 hours", "description": "To perform western blotting, BT-474 and JIMT-1 cell lines were treated with control (DMSO), compound 18c, and compound 11k at concentrations of 10 μM each for 72 hours, and then lysed in lysis buffer (30 mM NaCl, 0.5% Triton X-100, 50 mM Tris-HCl; pH 7.4) containing phosphatase and protease inhibitors. The proteins present in the supernatant were harvested. The protein concentration was measured using a Bradford protein assay kit, and 30 μg of protein was taken equally from each experimental group. These proteins were electrophoresed on SDS-Polyacrylamide gels (8-15%), and electrically transferred to a nitrocellulose membrane. The membrane was reacted with primary antibodies [pro PARP (1:1000), cleaved PARP (1:2000), cleaved caspase-3 (1:1000), cleaved caspase-7 (1:1000), β-actin (1:5000)] diluted in 5% bovine serum albumin (BSA) at 4° C. for 24 hours, followed by a secondary antibody, horseradish peroxidase (HRP)-conjugated rabbit IgG (1:3000) for 2 hours at room temperature. The signal intensity of the above proteins was checked by color development using an Enhanced Chemiluminescence Kit and x-ray film.\nWestern blotting was used to investigate whether Hsp90 inhibitors, compound 18c (formula 1-16) and compound 11k (formula 1-7), could downregulate the expression and activity (phosphorylation) of HER2 and HER3, which are representative clients of Hsp90, in BT474 and JIMT-1 cell lines. The expression of Akt, MEK, ERK, Bcl-2, Cyclin D1, and Survivin, which are key factors for cell survival as Hsp90 clients, was also investigated. The western blotting was performed by the method that was used in Experimental Example 2.3.\nThe BT474 and JIMT-1 cell lines were treated with compound 18c and compound 11k at a concentration of 10 μM for 72 hours."}, "MDA-MB-231 cell line": {"test_system": "MDA-MB-231 cell line", "test": "MTS cell viability assay in MDA-MB-231 cell line", "type": "cell-based", "details": "Homo sapiens, MDA-MB-231, 72 hours", "description": "A HER2 positive breast cancer (HER2+BC) cell line, JIMT-1 (cell seeding numbers: 1.0 (JIMT)×10^4 cells/wells (confluency≤30%)) and a triple-negative breast cancer (TNBC) cell line, MDA-MB-231 (cell seeding numbers: 1.0 (M231)×10^4 cells/wells (confluency≤30%) were used in the experiment.\nThe above cell lines were cultured in Dulbecco's Modified Eagle's Medium (DMEM) or Eagle's minimum Essential Medium (MEM) each containing 10% fetal bovine serum (FBS), streptomycin-penicillin (100 U/ml), and Fungizone (0.625 μg/ml), respectively under 5% CO2, 37° C. environment.\nThe JIMT-1 cell line and MDA-MB-231 cell line were treated with the indazole derivatives (formulas 1-1 to 1-53) of the present disclosure at a concentration of 10 μM each for 72 hours, and then cell viability was measured using the MTS assay technique. The control group was treated with DMSO as an untreated group (0 μM) of the indazole derivative of the present disclosure.\nSpecifically, cells were attached to 96 well plates for 24 hours, and then treated with the indazole derivatives for 72 hours. Thereafter, the cells were chromogenized with MTS for 4 hours, and the absorbance was measured at 490 nm using a Spectramax Plus384 microplate analyzer. The significance between the control group and the experimental group was verified using an unpaired Students t-test (*p<0.01; DMSO control vs indazole series).\nHER2-positive breast cancer cell lines, BT474 (cell seeding numbers: 2.0 (JIMT)×10^4 cells/wells (confluency≤30%)) sensitive to trastuzumab, and JIMT-1 (cell seeding numbers: 1.0 (JIMT)×10^4 cells/wells (confluency≤30%)) resistant to trastuzumab, and a triple-negative breast cancer cell line, MDA-MB-231 (cell seeding numbers: 1.0 (M231)×10^4 cells/wells (confluency≤30%)) were used.\nThe BT474, JIMT-1, and MDA-MB-231 cell lines were treated with compound 18c (formula 1-16) and compound 11k (formula 1-7) at concentrations of 0 (DMSO), 0.1, 0.5, 1, 5, 10, and 20 μM, respectively, for 72 hours, and then cell viability was measured using the MTS assay technique as explained by the description of Experimental Example 1. The cell viability experiment was performed independently three times, and the significance was verified by a One-Way Anova, Bonferroni post-hoc test (*p<0.01; DMSO control vs. compound 18c or compound 11k).\nIn addition, the JIMT-1 and MDA-MB-231 cell lines were treated with compound 11m (formula 1-9), 11n (formula 1-10) and compound 12k (formula 1-13) at concentrations of 0 (DMSO), 0.1, 1, 5, 10, and 20 μM, respectively, for 72 hours, and then cell viability was measured.\nMeanwhile, triple-negative breast cancer cell lines MDA-MB-231 and BT549, and a mouse breast cancer cell line 4T1 were treated with compound 38 (formula 1-30) at concentrations of 0 (DMSO), 0.1, 0.5, 1, 2, 5, 10, and 20 μM for 72 hours, and then cell viability was measured.\nThe indazole derivative of the present disclosure was compared with the benzopyran derivative of the related art (KR 10-2304532) in terms of cell viability of the BT474, JIMT-1, and MDA-MB-231 cell lines (Table 1). In this case, the cell lines were treated with the benzopyran derivative at a concentration of 10 μM for 72 hours and the cell lines were treated with the indazole derivative at a concentration of 10 μM for 72 hours, and then the cell viability was measured."}}, "data": [{"compound": "COc1c(C(=O)Nc2ccc3c(C)nn(CCC4CCN(C)CC4)c3c2)ccc2c1C=CC(C)(C)O2", "note": "[compound 11k, 5-Methoxy-2,2-dimethyl-N-(3-methyl-1-(2-(1-methylpiperidin-4-yl)ethyl)-1H-indazol-6-yl)-2H-chromene-6-carboxamide]", "values": [{"measurement": "body weight", "setting": "[1]", "result": "maintained"}, {"measurement": "expression of HER2 and HER3", "setting": "[2]", "result": "decreased"}, {"measurement": "expression of activated forms phospho-HER2 and phospho-HER3", "setting": "[2]", "result": "significantly reduced"}, {"measurement": "expression of cell proliferation factors Akt, MEK, ERK, Bcl-2, Cyclin D1, and Survivin", "setting": "[2]", "result": "inhibited the expression"}, {"measurement": "IC50", "setting": "MDA-MB-231 cell line", "result": 2.69, "unit": "µM"}]}, {"compound": "COCCn1nc(NC(=O)c2ccc3c(c2OC)C=CC(C)(C)O3)c2ccccc21", "note": "[compound 18c, 5-Methoxy-N-(1-(2-methoxyethyl)-1H-indazol-3-yl)-2,2-dimethyl-2H-chromene-6-carboxamide]", "values": [{"measurement": "body weight", "setting": "[1]", "result": "maintained"}, {"measurement": "expression of HER2 and HER3", "setting": "[2]", "result": "decreased"}, {"measurement": "expression of activated forms phospho-HER2 and phospho-HER3", "setting": "[2]", "result": "significantly reduced"}, {"measurement": "expression of cell proliferation factors Akt, MEK, ERK, Bcl-2, Cyclin D1, and Survivin", "setting": "[2]", "result": "inhibited the expression"}, {"measurement": "IC50", "setting": "MDA-MB-231 cell line", "result": 6.84, "unit": "µM"}]}]}
